The record followed here is patent US10813891B2, “Method of inhibiting chronification of pain” (priority 2011, dated 2020).

Common to all, as to type: in vivo, rat
In one test the test system is CCI-SN rats. Description: Paw pressure (Randall-Selitto) test in CCI-SN rats. The conditions noted are these: 10 mg/kg i.p. On the procedure:
Male Sprague-Dawley rats (Charles River Laboratories, L'Arbresle, France), weighing 150-200 g on arrival, were used. Animals were maintained under controlled environmental conditions (22±1° C., 60% relative humidity, 12 h/12 h light/dark cycle, food and water ad libitum) starting from reception in the laboratory, for at least 1 week before any intervention or treatment and thereafter, until euthanasia.
Rats were anaesthetized as above and the common sciatic nerve was exposed. Using a dissection microscope (2× magnification), four chromic catgut (5-0) ligations were tied loosely with about 1 mm spacing, proximally to the sciatic trifurcation (Bennett and Xie, 1988). Finally, the skin and muscle were sewed using silk sutures (4-0). In sham-operated animals, the same surgery was performed, but the nerve was not ligated.
Tapentadol (1, 3 and 10 mg/kg i.p.), reboxetine (10 mg/kg i.p.), morphine (1 and 3 mg/kg s.c.) or their vehicle (0.9% NaCl) were injected acutely 14 days after surgery, when allodynia/hyperalgesia reached a plateau in both CCI-SN and CCI-ION rats. Behavioral tests were performed at various times for up to 4 h after injection. In drug association procedure, reboxetine or saline was administered 15 min before morphine or saline.

Test [1] has as its system mRNA encoding ATF3, IL-6 and BDNF. As to the kind of experiment: Real time qRT-PCR of mRNA in trigeminal ganglion and Sp5c of CCI-ION rats. The conditions noted are these: subchronic 10 mg/kg i.p. twice daily; ipsilateral trigeminal ganglion and Sp5c area; 4 h after last injection. How it is done: (§1) Subchronic treatment consisted of twice daily injections of tapentadol (10 mg/kg, i.p. at 10:00 am and 6:00 pm) or saline for 4 days starting on the 15th day after nerve ligation in both CCI-ION and CCI-SN rats. Animals were further injected with tapentadol (10 mg/kg i.p.) or saline at 10:00 am the following day (19th day post-surgery), and assessment of allodynia with von Frey filament tests (see below) was made at various times up to 4 hours after this injection. All rats were killed by decapitation 4 hours after the last injection for real-time qRT-PCR determinations of specific mRNAs in ganglia and central tissues (see below).
(§2) Animals used for qRT-PCR procedure were decapitated immediately after performance of von Frey filament test four hours after the last injection of tapentadol or saline for subchronic treatment conditions (see above). […]
(§3) First-stranded cDNA synthesis (from 660 ng total RNA per 20 μl reaction mixture) was carried out using SuperScript™ III Reverse Transcriptase and random primers (250 ng per reaction), as recommended by the manufacturer (Invitrogen, Cergy Pontoise, France). […] Semi-quantitative determinations were made with reference to the reporter gene encoding glyceraldehyde 3-phosphate dehydrogenase (GaPDH; Rn99999916_sl). […] Specific mRNA levels were calculated after normalizing from GaDPH mRNA in each sample (Latrémolière et al., 2008). […]

For test [2] the test system is unchanged. As to the kind of experiment: Real time qRT-PCR of mRNA in DRG and lumbar spinal cord of CCI-SN rats. As to conditions: subchronic 10 mg/kg i.p. twice daily; ipsilateral L4-L6 DRG and dorsal quadrant of lumbar enlargement; 4 h after last injection. How it is done: as §1, §2, §3
In general terms: Quantitative PCR measures a nucleic acid by following its amplification.

Take `CC[C@@H](c1cccc(O)c1)[C@@H](C)CN(C)C` [Tapentadol, (−)-(1R,2R)-3-(3-dimethylamino-1-ethyl-2-methyl-propyl)-phenol]: in the test with CCI-SN rats, the “duration of increase in pressure threshold values” is reported as “at least 60 min”. Further, the “pressure threshold values to trigger vocalization, vs untreated healthy rats” value in the test with CCI-SN rats (first 45 min after administration) is listed as “+20%”. Besides, the “pressure threshold values to cause hindpaw withdrawal” value in the test with CCI-SN rats (first hour after treatment, vs intact healthy rats) is listed as “did not significantly differ from those determined in intact healthy rats”. Besides, in test [1], the “ATF3, IL-6 and BDNF mRNA levels” value is “had no significant effects”. Besides, the “levels of mRNA encoding ATF3, IL-6 and BDNF, tapentadol vs saline” value in test [2] was “not significantly different”.
